Assay results from patent US4025533A, “5-Bromo-5-nitro-2-alkylsubstituted-1,3-dioxane” (Eli Lilly and Company, priority 1976, dated 1977).
Values after ≈ are worked out from the molar mass of the structure shown.

Experiments:
Propionibacterium acnes = experiment: conventional tube dilution test, anaerobic; type: cell-based; conditions: Cutibacterium acnes, medium pH 6.9, read-out: minimum inhibitory concentration
Procedure: For example, 5-bromo-2-methyl-5-nitro-1,3-dioxane (Compound C) was tested against Propionibacterium acnes (formerly called Corynebacterium acnes) in a conventional tube dilution test. A simultaneous test was run utilizing 2-bromo-2-nitropropane,1,3-diol (Compound A) and 5-bromo-5-nitro-1,3-dioxane (Compound B) as the antimicrobials.
The test against Propionibacterium acnes were run anaerobically in the following medium:
(§1) Distilled water q.s. -- 1000 ml
The pH of the medium was 6.9

[1] = prior art; cited from earlier work
Streptococcus faecalis [2] = experiment: conventional tube dilution test (Table I); type: cell-based; conditions: Enterococcus faecalis, 48 h, antibiotic Number 3 medium, two days at 37° C., read-out: Minimum Inhibitory Concentration
Procedure: (§2) The in vitro antimicrobial activities of Compounds A, B and C, 5-bromo-2-ethyl-5-nitro-1,3-dioxane (Compound D), 5-bromo-5-nitro-2-n-propyl-1,3-dioxane (Compound E), and 5-bromo-2-isopropyl-5-nitro-1,3-dioxane (Compound F) were determined concurrently against Pseudomonas aeruginosa, Staphylococcus aureus, Escherichia coli, and Streptococcus faecalis in a conventional tube dilution test. The medium used was antibiotic Number 3 [CFR 436.102(3)] and the concentration of organisms was 10^4 organisms per ml of medium, with each tube being inoculated with 0.1 ml of inoculum. The figures shown in Table I are the lowest concentrations in mcg of active compound/ml of medium where no growth occurred in the medium after two days' incubation at 37° C.

Escherichia coli [3] = experiment: conventional tube dilution test (Table I); type: cell-based; conditions: 48 h, antibiotic Number 3 medium, two days at 37° C., read-out: Minimum Inhibitory Concentration
Procedure: as §2

Staphylococcus aureus [4] = experiment: conventional tube dilution test (Table I); type: cell-based; conditions: 48 h, antibiotic Number 3 medium, two days at 37° C., read-out: Minimum Inhibitory Concentration
Procedure: as §2

Pseudomonas aeruginosa [5] = experiment: conventional tube dilution test (Table I); type: cell-based; conditions: 48 h, antibiotic Number 3 medium, two days at 37° C., read-out: Minimum Inhibitory Concentration
Procedure: as §2

Aspergillus niger = experiment: agar plate system (Table II); type: cell-based; conditions: antibiotic medium 22, 72 hours at 30° C., read-out: Minimum Inhibitory Concentration
Procedure: (§3) The antimicrobial activities of Compounds A, B, C, D, E and F were also determined in an agar plate system. The compounds were added to melted and cooled (50° C.) agar in twofold concentration increments from 50 mcg per ml of agar to 1.56 mcg per ml of agar. Antibiotic medium 1 [CFR 436.102(1)] was used for testing of Pseudomonas aeruginosa, Staphylococcus aureus, Escherichia coli, and Streptococcus faecalis, but antibiotic medium 22 [CFR 436.102(22)] was used for testing of Candida albicans and Aspergillus niger. Organism suspensions containing 10^6 organisms per ml were used as stock suspensions. Sterile cotton swabs were dipped in the suspensions and then streaked across the solidified agar. The figures shown in Table II were the lowest concentrations at which no growth occurred after 72 hours at 30° C. These values were interpreted as the minimum inhibitory concentration (MIC).

Streptococcus faecalis [6] = experiment: agar plate system (Table II); type: cell-based; conditions: Enterococcus faecalis, antibiotic medium 1, 72 hours at 30° C., read-out: Minimum Inhibitory Concentration
Procedure: as §3

Escherichia coli [7] = experiment: agar plate system (Table II); type: cell-based; conditions: antibiotic medium 1, 72 hours at 30° C., read-out: Minimum Inhibitory Concentration
Procedure: as §3

Staphylococcus aureus [8] = experiment: agar plate system (Table II); type: cell-based; conditions: antibiotic medium 1, 72 hours at 30° C., read-out: Minimum Inhibitory Concentration
Procedure: as §3

Candida albicans = experiment: agar plate system (Table II); type: cell-based; conditions: antibiotic medium 22, 72 hours at 30° C., read-out: Minimum Inhibitory Concentration
Procedure: as §3

Pseudomonas aeruginosa [9] = experiment: agar plate system (Table II); type: cell-based; conditions: antibiotic medium 1, 72 hours at 30° C., read-out: Minimum Inhibitory Concentration
Procedure: as §3

Aspergillus terreus = experiment: In Vitro Antifungal Activity, agar plates (Table III); type: cell-based; conditions: 72 h, three days at 25° C., pH 5.7, read-out: Minimum Inhibitory Concentration
Procedure: (§4) Compounds A, B, and C were tested further to determine antifungal activity. The compounds were added to melted and cooled (50° C.) agar to obtain concentrations of 100, 50, 25, 12.5, 6.25 and 0.0 mcg per ml of agar. After the agar solidified, sterile cotton swabs were dipped in stock suspensions of the organisms (10^6 organisms per ml of physiological saline) and then streaked across the agar. After three days' incubation at 25° C., concentrations which prevented growth were recorded as the minimal inhibitory concentration. The composition of the medium used in this study was as follows:
(§5) Calcium carbonate -- 0.5 g
(§6) V-8 juice filtrate -- 200.0 ml
as §1
(§7) The pH was adjusted to 5.7.

[10] = system: Fusarium oxysporum cubense; experiment: as above; type: cell-based; conditions: 72 h, three days at 25° C., pH 5.7, read-out: Minimum Inhibitory Concentration
Procedure: as §4, §5, §6, §1, §7

Rhodotorula glutinis = experiment: as above; type: cell-based; conditions: 72 h, three days at 25° C., pH 5.7, read-out: Minimum Inhibitory Concentration
Procedure: as §4, §5, §6, §1, §7

Aspergillus fumigatus = experiment: as above; type: cell-based; conditions: 72 h, three days at 25° C., pH 5.7, read-out: Minimum Inhibitory Concentration
Procedure: as §4, §5, §6, §1, §7

Botrytis cinerea = experiment: as above; type: cell-based; conditions: 72 h, three days at 25° C., pH 5.7, read-out: Minimum Inhibitory Concentration
Procedure: as §4, §5, §6, §1, §7

[11] = system: Saccharomyces pastorianus; experiment: as above; type: cell-based; conditions: 72 h, three days at 25° C., pH 5.7, read-out: Minimum Inhibitory Concentration
Procedure: as §4, §5, §6, §1, §7

Microsporum gypseum = experiment: as above; type: cell-based; conditions: Nannizzia gypsea, 72 h, three days at 25° C., pH 5.7, read-out: Minimum Inhibitory Concentration
Procedure: as §4, §5, §6, §1, §7

Penicillium notatum = experiment: as above; type: cell-based; conditions: Penicillium chrysogenum, 72 h, three days at 25° C., pH 5.7, read-out: Minimum Inhibitory Concentration
Procedure: as §4, §5, §6, §1, §7

Colletotrichum phomoides = experiment: as above; type: cell-based; conditions: 72 h, three days at 25° C., pH 5.7, read-out: Minimum Inhibitory Concentration
Procedure: as §4, §5, §6, §1, §7

Chaetomium globosum = experiment: as above; type: cell-based; conditions: 72 h, three days at 25° C., pH 5.7, read-out: Minimum Inhibitory Concentration
Procedure: as §4, §5, §6, §1, §7

MIC (Propionibacterium acnes): 6.25 µg/mL (≈ 31.3 µM)
MIC (Streptococcus faecalis [2]): 25 µg/mL (≈ 125 µM)
MIC (Escherichia coli [3]): 12.5 µg/mL (≈ 62.5 µM)
MIC (Staphylococcus aureus [4]): 25 µg/mL (≈ 125 µM)
MIC (Pseudomonas aeruginosa [5]): 12.5 µg/mL (≈ 62.5 µM)
MIC (Aspergillus niger): > 50 µg/mL
MIC (Streptococcus faecalis [6]): 12.5 µg/mL (≈ 62.5 µM)
MIC (Escherichia coli [7]): 6.25 µg/mL (≈ 31.3 µM)
MIC (Staphylococcus aureus [8]): 12.5 µg/mL (≈ 62.5 µM)
MIC (Candida albicans): > 50 µg/mL
MIC (Pseudomonas aeruginosa [9]): 6.25 µg/mL (≈ 31.3 µM)
MIC (Aspergillus terreus): 25 µg/mL (≈ 125 µM)
MIC [10]: 25 µg/mL (≈ 125 µM)
MIC (Rhodotorula glutinis): 100 µg/mL (≈ 500 µM)
MIC (Aspergillus fumigatus): < 6.25 µg/mL
MIC (Botrytis cinerea): 25 µg/mL (≈ 125 µM)
MIC [11]: > 100 µg/mL
MIC (Microsporum gypseum): 50 µg/mL (≈ 250 µM)
MIC (Penicillium notatum): 100 µg/mL (≈ 500 µM)
MIC (Colletotrichum phomoides): > 100 µg/mL
MIC (Chaetomium globosum): < 6.25 µg/mL
SMILES: O=[N+]([O-])C(Br)(CO)CO [Compound A, 2-bromo-2-nitropropane-1,3-diol]
chemical stability towards alkali [1]: chemically unstable towards alkali
